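96-well plates; 48 h exposure; 5 concentrations. Endpoints by linear interpolation between flanking doses. Not reached: highest tested concentration assigned. The concentration for 50% growth inhibition is given as GI50.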 Activity calls are given as the source filed them. No stated cut-off is given here; in the data, active = GI50 up to about 1.1 µM and inactive = higher.
Assays:
Assay in all cases: growth of human tumour cells (NCI), 48 h
U-251 = tested on: U-251
HCC 2998 = tested on: HCC 2998
IGROV-1 = tested on: IGROV-1
UO-31 = tested on: UO-31
OVCAR-4 = tested on: OVCAR-4
MDA-N = tested on: MDA-N
SNB-19 = tested on: SNB-19
HOP-62 = tested on: HOP-62
DU-145 = tested on: DU-145
OVCAR-3 = tested on: OVCAR-3
CCRF-CEM = tested on: CCRF-CEM
NCI-H23 = tested on: NCI-H23
RPMI-8226 = tested on: RPMI-8226
UACC-62 = tested on: UACC-62
SK-MEL-5 = tested on: SK-MEL-5
M14 = tested on: M14
T47D = tested on: T47D
NCI-H460 = tested on: NCI-H460
TK-10 = tested on: TK-10
OVCAR-8 = tested on: OVCAR-8
SNB-75 = tested on: SNB-75
786-0 = tested on: 786-0
LOX IMVI = tested on: LOX IMVI
SK-OV-3 = tested on: SK-OV-3
COLO 205 = tested on: COLO 205
A498 = tested on: A498
HL-60 = tested on: HL-60
A549 = tested on: A549
HCT-15 = tested on: HCT-15
MDA-MB-435 = tested on: MDA-MB-435
SF-539 = tested on: SF-539
SN12C = tested on: SN12C
SK-MEL-28 = tested on: SK-MEL-28
SF-268 = tested on: SF-268
MDA-MB-231 = tested on: MDA-MB-231
PC-3 = tested on: PC-3
Malme-3M = tested on: Malme-3M
NCI-H522 = tested on: NCI-H522
Hs-578T = tested on: Hs-578T
MCF7 = tested on: MCF7
HT-29 = tested on: HT-29
KM12 = tested on: KM12
MOLT-4 = tested on: MOLT-4
NCI-H226 = tested on: NCI-H226
NCI/ADR-RES = tested on: NCI/ADR-RES
CAKI-1 = tested on: CAKI-1
HCT-116 = tested on: HCT-116
BT-549 = tested on: BT-549
SK-MEL-2 = tested on: SK-MEL-2
SF-295 = tested on: SF-295
OVCAR-5 = tested on: OVCAR-5
EKVX = tested on: EKVX
RXF 393 = tested on: RXF 393
SW-620 = tested on: SW-620
UACC-257 = tested on: UACC-257
ACHN = tested on: ACHN
K562 = tested on: K562
HOP-92 = tested on: HOP-92
SR = tested on: SR

Measured: GI50

CCC(C)(C)c1ccc(Oc2cccc(C(=O)O)c2)cc1
inactive: U-251 41.8 µM | HCC 2998 93.3 µM | IGROV-1 > 100 µM | UO-31 48.1 µM | OVCAR-4 44.3 µM | MDA-N 47.6 µM | SNB-19 85.5 µM | HOP-62 64.7 µM | DU-145 97.1 µM | OVCAR-3 26.7 µM | CCRF-CEM 28.9 µM | NCI-H23 52.2 µM | RPMI-8226 28.8 µM | UACC-62 34.6 µM | SK-MEL-5 43.1 µM | M14 52.8 µM | T47D 33.7 µM | NCI-H460 44.4 µM | TK-10 > 100 µM | OVCAR-8 69.7 µM | SNB-75 37.9 µM | 786-0 89.3 µM | LOX IMVI 50.4 µM | SK-OV-3 72.1 µM | COLO 205 38.8 µM | A498 53.8 µM | HL-60 40.1 µM | A549 38.2 µM | MDA-MB-435 45 µM | SF-539 33.5 µM | SN12C 56.4 µM | SK-MEL-28 81.8 µM | SF-268 46.8 µM | MDA-MB-231 > 100 µM | PC-3 55 µM | Malme-3M 44.6 µM | NCI-H522 28.2 µM | Hs-578T 44 µM | MCF7 36.8 µM | HT-29 44.4 µM | KM12 47.1 µM | MOLT-4 29.9 µM | NCI-H226 39.9 µM | NCI/ADR-RES 50.1 µM | CAKI-1 65.6 µM | HCT-116 41.5 µM | BT-549 66.7 µM | SK-MEL-2 45.2 µM | SF-295 38.3 µM | OVCAR-5 > 100 µM | EKVX 40.4 µM | RXF 393 98.6 µM | SW-620 53 µM | UACC-257 > 100 µM | ACHN 58.9 µM | K562 32.6 µM
39.5 µM: HCT-15

O=C(NC(=S)Nc1ccc(Br)cc1)c1ccc2c(c1)Sc1ccccc1S2
38 µM: HCT-15
inactive: U-251 19 µM | HOP-92 15.8 µM | IGROV-1 16.1 µM | UO-31 12.9 µM | OVCAR-4 19.2 µM | MDA-N 28.9 µM | SNB-19 25.2 µM | HOP-62 16.1 µM | DU-145 17.3 µM | OVCAR-3 20.3 µM | CCRF-CEM 16.5 µM | NCI-H23 21.5 µM | UACC-62 27.5 µM | SK-MEL-5 51.1 µM | SR 17.3 µM | M14 12.4 µM | T47D 16.9 µM | NCI-H460 17.9 µM | TK-10 16.9 µM | OVCAR-8 17.3 µM | SNB-75 15 µM | 786-0 16.2 µM | LOX IMVI 23.3 µM | SK-OV-3 16.7 µM | COLO 205 41.8 µM | A498 19.6 µM | HL-60 17.5 µM | A549 21 µM | MDA-MB-435 94.4 µM | SF-539 24.3 µM | SN12C 18.8 µM | SK-MEL-28 78.7 µM | SF-268 21.9 µM | MDA-MB-231 17.6 µM | PC-3 47.8 µM | Malme-3M 24.4 µM | NCI-H522 23.1 µM | Hs-578T 26.5 µM | MCF7 32.7 µM | HT-29 33.6 µM | KM12 23.8 µM | MOLT-4 7.53 µM | NCI-H226 23.4 µM | NCI/ADR-RES 24.2 µM | CAKI-1 20.1 µM | HCT-116 23.2 µM | BT-549 39.1 µM | SK-MEL-2 24.5 µM | SF-295 20.4 µM | OVCAR-5 20.6 µM | SW-620 31.6 µM | UACC-257 21.7 µM | ACHN 18.2 µM | K562 9.04 µM

CSc1ncnc2c1ncn2C1CC(Oc2ccc(C)cc2)C(COc2ccc(C)cc2)O1 (centres undefined)
> 100 µM: HCT-15
inactive: U-251 > 100 µM | HCC 2998 > 100 µM | HOP-92 > 100 µM | IGROV-1 > 100 µM | OVCAR-4 > 100 µM | MDA-N > 100 µM | SNB-19 > 100 µM | HOP-62 > 100 µM | DU-145 > 100 µM | OVCAR-3 > 100 µM | CCRF-CEM > 100 µM | NCI-H23 49.4 µM | RPMI-8226 9.66 µM | UACC-62 > 100 µM | SK-MEL-5 52.2 µM | SR 76.6 µM | M14 > 100 µM | T47D 16.6 µM | NCI-H460 > 100 µM | TK-10 > 100 µM | OVCAR-8 > 100 µM | SNB-75 > 100 µM | 786-0 > 100 µM | LOX IMVI > 100 µM | SK-OV-3 > 100 µM | COLO 205 > 100 µM | A498 > 100 µM | HL-60 > 100 µM | A549 > 100 µM | MDA-MB-435 > 100 µM | SF-539 > 100 µM | SN12C > 100 µM | SK-MEL-28 > 100 µM | SF-268 > 100 µM | MDA-MB-231 > 100 µM | PC-3 > 100 µM | Malme-3M > 100 µM | NCI-H522 > 100 µM | Hs-578T > 100 µM | MCF7 > 100 µM | HT-29 > 100 µM | KM12 > 100 µM | MOLT-4 6.1 µM | NCI-H226 > 100 µM | NCI/ADR-RES > 100 µM | CAKI-1 24.7 µM | HCT-116 > 100 µM | BT-549 > 100 µM | SK-MEL-2 > 100 µM | SF-295 > 100 µM | OVCAR-5 > 100 µM | EKVX > 100 µM | SW-620 > 100 µM | UACC-257 > 100 µM | ACHN > 100 µM

O=C(C1OC1c1ccc(Cl)cc1)C12CC3CC(CC(C3)C1)C2 (centres undefined)
inactive: U-251 15.4 µM | HCC 2998 19.1 µM | HOP-92 16.9 µM | IGROV-1 23.6 µM | UO-31 20.4 µM | OVCAR-4 15.4 µM | MDA-N 15.2 µM | SNB-19 31.5 µM | HOP-62 24.8 µM | DU-145 29.1 µM | OVCAR-3 15.8 µM | CCRF-CEM 19 µM | NCI-H23 14.4 µM | UACC-62 15.4 µM | SK-MEL-5 14.5 µM | M14 17.8 µM | T47D 31.6 µM | NCI-H460 14.9 µM | TK-10 26.7 µM | OVCAR-8 16.5 µM | SNB-75 32.8 µM | 786-0 16.3 µM | LOX IMVI 4.02 µM | SK-OV-3 31 µM | COLO 205 19.5 µM | A498 23.7 µM | HL-60 18.3 µM | A549 21.8 µM | MDA-MB-435 14.3 µM | SF-539 17.3 µM | SN12C 14.7 µM | SK-MEL-28 16.5 µM | SF-268 20.8 µM | MDA-MB-231 23.6 µM | PC-3 29 µM | Malme-3M 22.4 µM | NCI-H522 20.9 µM | Hs-578T 28.4 µM | MCF7 33.7 µM | HT-29 21 µM | KM12 18.8 µM | MOLT-4 20 µM | NCI-H226 18.3 µM | NCI/ADR-RES 22.9 µM | CAKI-1 28.8 µM | HCT-116 12.4 µM | BT-549 19.9 µM | SK-MEL-2 25.5 µM | SF-295 18.2 µM | OVCAR-5 24.2 µM | EKVX 23.1 µM | RXF 393 21.8 µM | SW-620 20.3 µM | UACC-257 21.6 µM | ACHN 35.4 µM | K562 25.1 µM
20.1 µM: HCT-15

Cc1[nH]c2[nH]c(=S)nc(NC(N)=S)c2c1Cc1ccccc1
58.6 µM: HCT-15
inactive: U-251 43.9 µM | HOP-92 > 100 µM | IGROV-1 59 µM | UO-31 22.8 µM | MDA-N 22.7 µM | SNB-19 97.9 µM | HOP-62 47 µM | DU-145 49.5 µM | OVCAR-3 28 µM | CCRF-CEM 21.9 µM | NCI-H23 29.7 µM | RPMI-8226 12.7 µM | UACC-62 29.9 µM | SK-MEL-5 13.4 µM | SR 11.5 µM | M14 42.3 µM | T47D 21.8 µM | NCI-H460 48.6 µM | TK-10 62.8 µM | OVCAR-8 51.9 µM | SNB-75 31.9 µM | 786-0 26.8 µM | LOX IMVI 19.6 µM | SK-OV-3 76 µM | COLO 205 15.1 µM | A498 > 100 µM | HL-60 13.6 µM | A549 75.5 µM | MDA-MB-435 17.3 µM | SF-539 37.2 µM | SN12C > 100 µM | SK-MEL-28 21.9 µM | SF-268 43.8 µM | MDA-MB-231 28.1 µM | PC-3 47 µM | Hs-578T 18.9 µM | MCF7 38.1 µM | HT-29 22.3 µM | KM12 16.4 µM | MOLT-4 23.4 µM | NCI-H226 > 100 µM | NCI/ADR-RES 48.8 µM | CAKI-1 98.6 µM | HCT-116 31.8 µM | BT-549 14.3 µM | SK-MEL-2 93.1 µM | SF-295 35.2 µM | OVCAR-5 > 100 µM | EKVX 48.4 µM | SW-620 34 µM | UACC-257 54.3 µM | ACHN > 100 µM | K562 25.9 µM

Source: ChEMBL document CHEMBL1201862, “PubChem BioAssay data set” (2004)
